From article PMC2362650, “Phase I and pharmacokinetic study of the topoisomerase II catalytic inhibitor fostriecin” (British Journal of Cancer, 1999)

Experiment: Phase I study: toxicity graded with NCI common toxicity criteria in patients
Format: in vivo, human
Description: Fostriecin (CI-920) is a topoisomerase (topo) II catalytic activity inhibitor (Boritzki et al, 1988) (Figure 1). This novel class of topo II-targeting drugs is considered of potential value for treatment of patients with tumours resistant to classic topo II poisons, including anthracyclines and podophyllotoxins (Cummings and Smyth, 1993). The nuclear enzyme topo II is essential for the regulation of DNA conformation (reviewed in Osheroff et al, 1991). Central in its action is the formation of a complex with DNA. Stabilization of this complex by topo II poisons induces DNA damage and cell death (Froelich-Ammon and Osheroff, 1995). Decreased complex formation due to decreased topo II levels is considered to be an important mechanism of tumour-resistance to topo II poisons (Beck and Danks, 1991). The topo II catalytic inhibitor fostriecin is expected to have increased activity against tumour cells with low topo II levels and this was confirmed in in vitro studies (De Jong et al, 1991). […] Because of increased toxi- city of fostriecin in dogs compared to mice, a dose below one-third of the one-tenth mouse equivalent LD10, 2 mg m-2 day-1, was chosen as starting dose in humans (Clinical Brochure Fostriecin, 1991). […] We also performed an analysis of the human pharmacokinetics of fostriecin and ex vivo experiments to investigate if the plasma drug concentrations achieved were sufficient to inhibit a tenipo- side-resistant tumour cell line. The maximum tolerated dose (MTD) of fostriecin could not be established because drug supply was stopped prematurely. However, results of this study may provide a basis for continued clinical development of this agent. PATIENTS AND METHODS Patient selection, drug administration and evaluation Patient eligibility criteria were: histologically confirmed diagnosis of a solid tumour, no longer amenable to established forms of treatment; age 18-75 years; Eastern Cooperative Oncology Group (ECOG) performance status 2; life expectancy 12 weeks; no Phase I and pharmacokinetic study of the topoisomerase II catalytic inhibitor fostriecin RS de Jong1, NH Mulder1, DRA Uges2, DTh Sleijfer1, FJP Hoppener4, HJM Groen3, PHB Willemse1, WTA van der Graaf1 and EGE de Vries1 Departments of 1Medical Oncology, 2Pharmacy and Toxicology, and 3Pulmonary Diseases, University Hospital Groningen, The Netherlands; 4EORTC New Drug Development Office, Amsterdam, The Netherlands Summary We conducted a phase I and pharmacokinetic study of the topoisomerase II catalytic inhibitor fostriecin. Fostriecin was administered intravenously over 60 min on days 1-5 at 4-week intervals. Dose was escalated from 2 mg m-2 day-1 to 20 mg m-2 day-1 in 20 patients. Drug pharmacokinetics was analysed with high performance liquid chromatography with UV-detection. Plasma collected during drug administration was tested in vitro for growth inhibition of a teniposide-resistant small-cell lung cancer (SCLC) cell line. The predominant toxicities were elevated liver transaminases (maximum common toxicity criteria (CTC) grade 4) and serum creatinine (maximum CTC grade 2). […] Duration of elevated alanine-amino transferase (ALT) was dose-limiting in one patient at 20 mg m-2. Other frequent toxicities were grade 1-2 nausea/vomiting, fever and mild fatigue. […] A metabolite, most probably dephosphorylated fostriecin, was detected in plasma and urine. […] However, further escalation seems possible and is warranted to achieve potentially effective drug levels. Fostriecin has a short plasma half-life and longer duration of infusion should be considered. […]

[1] = 4 mg m-2, 5 patients/11 courses
[2] = 6.6 mg m-2, 3 patients/4 courses
[3] = 10 mg m-2, 3 patients/7 courses

C[C@@](O)(/C=C/[C@H]1CC=CC(=O)O1)[C@@H](C[C@@H](O)\C=C/C=C\C=C\CO)OP(=O)(O)O [fostriecin]
CTC-grade 1 ALP: courses causing toxicity, all full-dose courses (2 mg m-2, 4 patients/8 courses): 2 | CTC-grade 1 ALP: patients developing toxicity in first course (2 mg m-2, 4 patients/8 courses): 1 | CTC-grade 1 ALT: courses causing toxicity, all full-dose courses (2 mg m-2, 4 patients/8 courses): 6 | CTC-grade 1 ALT: patients developing toxicity in first course (2 mg m-2, 4 patients/8 courses): 2 | CTC-grade 1 AST: courses causing toxicity, all full-dose courses (2 mg m-2, 4 patients/8 courses): 2 | CTC-grade 1 AST: patients developing toxicity in first course (2 mg m-2, 4 patients/8 courses): 2 | CTC-grade 1 GGT: courses causing toxicity, all full-dose courses (2 mg m-2, 4 patients/8 courses): 2 | CTC-grade 1 GGT: patients developing toxicity in first course (2 mg m-2, 4 patients/8 courses): 0 | CTC-grade 1 creatinine: courses causing toxicity, all full-dose courses (2 mg m-2, 4 patients/8 courses): 4 | CTC-grade 1 creatinine: patients developing toxicity in first course (2 mg m-2, 4 patients/8 courses): 2 | CTC-grade 2 ALT: courses causing toxicity, all full-dose courses (2 mg m-2, 4 patients/8 courses): 1 | CTC-grade 2 ALT: patients developing toxicity in first course (2 mg m-2, 4 patients/8 courses): 1 | CTC-grade 2 GGT: courses causing toxicity, all full-dose courses (2 mg m-2, 4 patients/8 courses): 2 | CTC-grade 2 GGT: patients developing toxicity in first course (2 mg m-2, 4 patients/8 courses): 1 | CTC-grade 1 ALP: courses causing toxicity, all full-dose courses [1]: 3 | CTC-grade 1 ALP: patients developing toxicity in first course [1]: 3 | CTC-grade 1 ALT: courses causing toxicity, all full-dose courses [1]: 8 | CTC-grade 1 ALT: patients developing toxicity in first course [1]: 4 | CTC-grade 1 AST: courses causing toxicity, all full-dose courses [1]: 7 | CTC-grade 1 AST: patients developing toxicity in first course [1]: 3 | CTC-grade 1 GGT: courses causing toxicity, all full-dose courses [1]: 1 | CTC-grade 1 GGT: patients developing toxicity in first course [1]: 1 | CTC-grade 1 creatinine: courses causing toxicity, all full-dose courses [1]: 7 | CTC-grade 1 creatinine: patients developing toxicity in first course [1]: 3 | CTC-grade 2 ALP: courses causing toxicity, all full-dose courses [1]: 1 | CTC-grade 2 ALP: patients developing toxicity in first course [1]: 0 | CTC-grade 2 ALT: courses causing toxicity, all full-dose courses [1]: 1 | CTC-grade 2 ALT: patients developing toxicity in first course [1]: 0 | CTC-grade 2 AST: courses causing toxicity, all full-dose courses [1]: 1 | CTC-grade 2 AST: patients developing toxicity in first course [1]: 1 | CTC-grade 2 GGT: courses causing toxicity, all full-dose courses [1]: 0 | CTC-grade 2 GGT: patients developing toxicity in first course [1]: 0 | CTC-grade 3 ALT: courses causing toxicity, all full-dose courses [1]: 2 | CTC-grade 3 ALT: patients developing toxicity in first course [1]: 1 | CTC-grade 3 AST: courses causing toxicity, all full-dose courses [1]: 1 | CTC-grade 3 AST: patients developing toxicity in first course [1]: 0 | CTC-grade 3 GGT: courses causing toxicity, all full-dose courses [1]: 4 | CTC-grade 3 GGT: patients developing toxicity in first course [1]: 1 | CTC-grade 1 ALP: courses causing toxicity, all full-dose courses [2]: 3 | CTC-grade 1 ALP: patients developing toxicity in first course [2]: 0 | CTC-grade 1 ALT: courses causing toxicity, all full-dose courses [2]: 2 | CTC-grade 1 ALT: patients developing toxicity in first course [2]: 2 | CTC-grade 1 AST: courses causing toxicity, all full-dose courses [2]: 0 | CTC-grade 1 AST: patients developing toxicity in first course [2]: 0 | CTC-grade 1 GGT: courses causing toxicity, all full-dose courses [2]: 0 | CTC-grade 1 GGT: patients developing toxicity in first course [2]: 0 | CTC-grade 1 creatinine: courses causing toxicity, all full-dose courses [2]: 1 | CTC-grade 1 creatinine: patients developing toxicity in first course [2]: 1 | CTC-grade 2 ALP: courses causing toxicity, all full-dose courses [2]: 1 | CTC-grade 2 ALP: patients developing toxicity in first course [2]: 0 | CTC-grade 2 ALT: courses causing toxicity, all full-dose courses [2]: 1 | CTC-grade 2 ALT: patients developing toxicity in first course [2]: 1 | CTC-grade 2 AST: courses causing toxicity, all full-dose courses [2]: 1 | CTC-grade 2 AST: patients developing toxicity in first course [2]: 1 | CTC-grade 2 GGT: courses causing toxicity, all full-dose courses [2]: 0 | CTC-grade 2 GGT: patients developing toxicity in first course [2]: 0 | CTC-grade 2 bilirubin: courses causing toxicity, all full-dose courses [2]: 1 | CTC-grade 2 bilirubin: patients developing toxicity in first course [2]: 1 | CTC-grade 3 ALT: courses causing toxicity, all full-dose courses [2]: 1 | CTC-grade 3 ALT: patients developing toxicity in first course [2]: 0 | CTC-grade 3 AST: courses causing toxicity, all full-dose courses [2]: 2 | CTC-grade 3 AST: patients developing toxicity in first course [2]: 1 | CTC-grade 3 GGT: courses causing toxicity, all full-dose courses [2]: 1 | CTC-grade 3 GGT: patients developing toxicity in first course [2]: 1 | CTC-grade 1 ALP: courses causing toxicity, all full-dose courses [3]: 1 | CTC-grade 1 ALP: patients developing toxicity in first course [3]: 1 | CTC-grade 1 ALT: courses causing toxicity, all full-dose courses [3]: 0 | CTC-grade 1 ALT: patients developing toxicity in first course [3]: 0 | CTC-grade 1 AST: courses causing toxicity, all full-dose courses [3]: 3 | CTC-grade 1 AST: patients developing toxicity in first course [3]: 0 | CTC-grade 1 GGT: courses causing toxicity, all full-dose courses [3]: 6 | CTC-grade 1 GGT: patients developing toxicity in first course [3]: 2 | CTC-grade 1 creatinine: courses causing toxicity, all full-dose courses [3]: 3 | CTC-grade 1 creatinine: patients developing toxicity in first course [3]: 2 | CTC-grade 2 ALT: courses causing toxicity, all full-dose courses [3]: 3 | CTC-grade 2 ALT: patients developing toxicity in first course [3]: 0 | CTC-grade 2 AST: courses causing toxicity, all full-dose courses [3]: 1 | CTC-grade 2 AST: patients developing toxicity in first course [3]: 1 | CTC-grade 2 GGT: courses causing toxicity, all full-dose courses [3]: 0 | CTC-grade 2 GGT: patients developing toxicity in first course [3]: 0 | CTC-grade 2 creatinine: courses causing toxicity, all full-dose courses [3]: 4 | CTC-grade 2 creatinine: patients developing toxicity in first course [3]: 1 | CTC-grade 3 ALT: courses causing toxicity, all full-dose courses [3]: 2 | CTC-grade 3 ALT: patients developing toxicity in first course [3]: 2 | CTC-grade 3 GGT: courses causing toxicity, all full-dose courses [3]: 1 | CTC-grade 3 GGT: patients developing toxicity in first course [3]: 1
